{
  "source": "paper PMC12090182",
  "about": "“Repurposing of the RIPK1-Selective Benzo[1,4]oxazepin-4-one Scaffold for the Development of a Type III LIMK1/2 Inhibitor” (ACS Chemical Biology, 2025)",
  "format_in_all_cases": "binding",
  "key": {"EGFR(G719S)": {"target": "EGFR(G719S) (Homo sapiens, UniProt P00533, G719S)", "test": "biochemical", "settings": "1000 nM, read-out: Percent Control"}, "EGFR(L747-T751del,Sins)": {"system": "EGFR(L747-T751del,Sins)"}, "FLT3(ITD,F691L)": {"system": "FLT3(ITD,F691L)", "settings": "compound concentration 100 nM; Entrez FLT3"}, "[1]": {"target": "ABL1(Q252H)-nonphosphorylated (Homo sapiens, UniProt P00519, Q252H)", "test": "biochemical", "settings": "read-out: Percent Control"}, "MAPK15A": {"target": "MAPK15A (Homo sapiens, UniProt Q8TD08)", "test": "DSF selectivity screening", "settings": "10 μM compound", "outline": "(§1)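 Thermal shift: 2 μM kinase domain + 10 μM cpd, 20 mM HEPES pH 7.5/500 mM NaCl, SYPRO Orange; ramp 3 °C/min, ex 465/em 590 nm; Tm from Boltzmann fit inflection.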"}, "STK3A": {"target": "STK3A (Homo sapiens, UniProt Q13188)", "sequence (Q13188 16-313)": "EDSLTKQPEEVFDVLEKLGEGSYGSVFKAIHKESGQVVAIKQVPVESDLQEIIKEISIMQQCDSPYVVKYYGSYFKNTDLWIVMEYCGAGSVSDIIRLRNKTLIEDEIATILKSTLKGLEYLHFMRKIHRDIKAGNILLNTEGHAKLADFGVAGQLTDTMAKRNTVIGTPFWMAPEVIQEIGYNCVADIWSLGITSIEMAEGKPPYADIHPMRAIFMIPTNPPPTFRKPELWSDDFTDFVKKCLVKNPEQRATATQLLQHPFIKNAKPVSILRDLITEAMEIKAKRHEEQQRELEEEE", "test": "DSF selectivity screening", "settings": "10 μM compound", "outline": "as §1"}, "CAMK1DA": {"target": "CAMK1DA (Homo sapiens, UniProt Q8IU85)", "test": "DSF selectivity screening", "settings": "10 μM compound", "outline": "as §1"}, "ULK3A": {"target": "ULK3A (Homo sapiens, UniProt Q6PHR2)", "test": "DSF selectivity screening", "settings": "10 μM compound", "outline": "as §1"}, "STK17BA": {"target": "STK17BA (Homo sapiens, UniProt O94768)", "sequence (O94768 25-329)": "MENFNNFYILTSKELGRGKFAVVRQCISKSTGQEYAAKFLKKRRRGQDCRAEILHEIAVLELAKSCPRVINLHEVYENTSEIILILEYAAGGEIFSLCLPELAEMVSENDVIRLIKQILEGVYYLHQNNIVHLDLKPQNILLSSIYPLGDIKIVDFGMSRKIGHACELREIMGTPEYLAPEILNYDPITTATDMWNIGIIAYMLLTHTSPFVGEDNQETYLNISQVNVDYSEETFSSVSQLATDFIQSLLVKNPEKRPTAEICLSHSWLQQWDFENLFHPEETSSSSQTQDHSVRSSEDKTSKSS", "test": "DSF selectivity screening", "settings": "10 μM compound", "outline": "as §1"}, "VRK1A": {"target": "VRK1A (Homo sapiens, UniProt Q99986)", "test": "DSF selectivity screening", "settings": "10 μM compound", "outline": "as §1"}, "MAPK13A": {"target": "MAPK13A (Homo sapiens, UniProt O15264)", "test": "DSF selectivity screening", "settings": "10 μM compound", "outline": "as §1"}, "MAPKAPK2A": {"target": "MAPKAPK2A (Homo sapiens, UniProt P49137)", "sequence (P49137 64-325)": "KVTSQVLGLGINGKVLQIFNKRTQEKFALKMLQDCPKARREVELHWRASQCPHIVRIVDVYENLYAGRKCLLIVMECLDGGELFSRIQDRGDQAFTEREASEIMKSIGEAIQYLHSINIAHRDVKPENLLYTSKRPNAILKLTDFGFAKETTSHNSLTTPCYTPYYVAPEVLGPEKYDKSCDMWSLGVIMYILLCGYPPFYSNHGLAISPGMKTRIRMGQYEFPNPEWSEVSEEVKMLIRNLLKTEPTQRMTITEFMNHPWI", "test": "DSF selectivity screening", "settings": "10 μM compound", "outline": "as §1"}, "AAK1A": {"target": "AAK1A (Homo sapiens, UniProt Q2M2I8)", "test": "DSF selectivity screening", "settings": "10 μM compound", "outline": "as §1"}, "MST4A": {"target": "MST4A (Homo sapiens, UniProt Q9P289)", "test": "DSF selectivity screening", "settings": "10 μM compound", "outline": "as §1"}, "PAK4A": {"target": "PAK4A (Homo sapiens, UniProt O96013)", "sequence (O96013 291-591)": "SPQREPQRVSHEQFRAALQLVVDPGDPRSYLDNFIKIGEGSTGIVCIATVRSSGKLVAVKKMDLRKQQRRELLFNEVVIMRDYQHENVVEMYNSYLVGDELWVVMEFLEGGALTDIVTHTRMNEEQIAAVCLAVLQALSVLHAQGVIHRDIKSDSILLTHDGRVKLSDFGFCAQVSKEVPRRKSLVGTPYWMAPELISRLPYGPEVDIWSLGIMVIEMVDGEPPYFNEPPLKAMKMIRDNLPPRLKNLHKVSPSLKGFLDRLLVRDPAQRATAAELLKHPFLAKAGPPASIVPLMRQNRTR", "test": "DSF selectivity screening", "settings": "10 μM compound", "outline": "as §1"}, "SLKA": {"target": "SLKA (Homo sapiens, UniProt Q9H2G2)", "sequence (Q9H2G2 19-320)": "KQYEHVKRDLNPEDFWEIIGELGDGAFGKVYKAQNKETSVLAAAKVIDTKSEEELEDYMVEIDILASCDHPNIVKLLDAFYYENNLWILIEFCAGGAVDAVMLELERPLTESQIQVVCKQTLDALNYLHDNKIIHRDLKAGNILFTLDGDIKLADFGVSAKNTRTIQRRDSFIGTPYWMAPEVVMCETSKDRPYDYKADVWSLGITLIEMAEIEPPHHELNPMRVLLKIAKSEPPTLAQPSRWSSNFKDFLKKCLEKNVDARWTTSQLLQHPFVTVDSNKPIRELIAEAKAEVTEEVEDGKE", "test": "DSF selectivity screening", "settings": "10 μM compound", "outline": "as §1"}, "MAP2K6A": {"target": "MAP2K6A (Homo sapiens, UniProt P52564)", "sequence (P52564 53-314)": "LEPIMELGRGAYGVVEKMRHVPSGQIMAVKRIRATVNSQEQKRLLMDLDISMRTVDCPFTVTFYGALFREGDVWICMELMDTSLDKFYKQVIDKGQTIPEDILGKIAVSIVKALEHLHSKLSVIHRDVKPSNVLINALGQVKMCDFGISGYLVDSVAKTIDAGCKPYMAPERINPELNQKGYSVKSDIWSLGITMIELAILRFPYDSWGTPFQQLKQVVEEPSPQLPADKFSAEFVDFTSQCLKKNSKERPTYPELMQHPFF", "test": "DSF selectivity screening", "settings": "10 μM compound", "outline": "as §1"}, "DYRK2A": {"target": "DYRK2A (Homo sapiens, UniProt Q92630)", "test": "DSF selectivity screening", "settings": "10 μM compound", "outline": "as §1"}, "BMP2KA": {"target": "BMP2KA (Homo sapiens, UniProt Q9NSY1)", "test": "DSF selectivity screening", "settings": "10 μM compound", "outline": "as §1"}, "FLT1A": {"target": "FLT1A (Homo sapiens, UniProt P17948)", "test": "DSF selectivity screening", "settings": "10 μM compound", "outline": "as §1"}, "PHKG2A": {"target": "PHKG2A (Homo sapiens, UniProt P15735)", "test": "DSF selectivity screening", "settings": "10 μM compound", "outline": "as §1"}, "CAMK2BA": {"target": "CAMK2BA (Homo sapiens, UniProt Q13554)", "test": "DSF selectivity screening", "settings": "10 μM compound", "outline": "as §1"}, "EPHA5A": {"target": "EPHA5A (Homo sapiens, UniProt P54756)", "test": "DSF selectivity screening", "settings": "10 μM compound", "outline": "as §1"}, "DAPK1A": {"target": "DAPK1A (Homo sapiens, UniProt P53355)", "test": "DSF selectivity screening", "settings": "10 μM compound", "outline": "as §1"}, "PLK4A": {"target": "PLK4A (Homo sapiens, UniProt O00444)", "sequence (O00444 2-275)": "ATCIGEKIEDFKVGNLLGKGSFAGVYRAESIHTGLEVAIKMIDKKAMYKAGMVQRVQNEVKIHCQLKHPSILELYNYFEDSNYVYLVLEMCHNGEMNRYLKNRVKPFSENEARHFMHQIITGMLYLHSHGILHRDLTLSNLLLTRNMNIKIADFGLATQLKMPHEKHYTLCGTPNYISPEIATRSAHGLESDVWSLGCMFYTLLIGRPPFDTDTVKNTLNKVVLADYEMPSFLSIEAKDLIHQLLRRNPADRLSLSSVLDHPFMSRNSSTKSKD", "test": "DSF selectivity screening", "settings": "10 μM compound", "outline": "as §1"}, "TTKA": {"target": "TTKA (Homo sapiens, UniProt P33981)", "test": "DSF selectivity screening", "settings": "10 μM compound", "outline": "as §1"}, "TAF1A": {"system": "TAF1A", "test": "DSF selectivity screening", "settings": "10 μM compound", "outline": "as §1"}, "GSK3BB": {"target": "GSK3BB (Homo sapiens, UniProt P49841)", "sequence (P49841 35-386)": "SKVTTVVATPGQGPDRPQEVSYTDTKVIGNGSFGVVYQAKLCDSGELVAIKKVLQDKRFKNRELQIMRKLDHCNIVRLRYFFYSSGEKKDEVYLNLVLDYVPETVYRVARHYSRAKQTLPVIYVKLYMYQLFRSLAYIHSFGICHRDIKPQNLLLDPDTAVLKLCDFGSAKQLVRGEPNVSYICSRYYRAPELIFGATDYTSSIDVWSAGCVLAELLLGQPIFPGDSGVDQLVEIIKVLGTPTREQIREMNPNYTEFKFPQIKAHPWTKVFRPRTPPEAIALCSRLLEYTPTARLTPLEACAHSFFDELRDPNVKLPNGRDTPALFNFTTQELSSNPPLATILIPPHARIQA", "test": "DSF selectivity screening", "settings": "10 μM compound", "outline": "as §1"}, "EPHA4A": {"target": "EPHA4A (Homo sapiens, UniProt P54764)", "sequence (P54764 621-882)": "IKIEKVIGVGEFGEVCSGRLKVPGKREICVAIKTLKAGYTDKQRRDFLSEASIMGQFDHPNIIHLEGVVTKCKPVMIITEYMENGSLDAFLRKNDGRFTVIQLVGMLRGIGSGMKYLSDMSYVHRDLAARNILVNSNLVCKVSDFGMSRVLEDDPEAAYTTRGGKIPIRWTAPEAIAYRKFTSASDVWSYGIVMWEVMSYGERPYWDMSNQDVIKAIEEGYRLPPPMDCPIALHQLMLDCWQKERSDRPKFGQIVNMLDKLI", "test": "DSF selectivity screening", "settings": "10 μM compound", "outline": "as §1"}, "[2]": {"target": "ABL1(H396P)-phosphorylated (Homo sapiens, UniProt P00519, H396P)", "test": "biochemical", "settings": "read-out: Percent Control"}, "FLT3(R834Q)": {"target": "FLT3(R834Q) (Homo sapiens, UniProt P36888, R834Q)", "test": "biochemical", "settings": "1000 nM, read-out: Percent Control"}, "[3]": {"target": "ABL1(M351T)-phosphorylated (Homo sapiens, UniProt P00519, M351T)", "test": "biochemical", "settings": "read-out: Percent Control"}, "[4]": {"target": "EGFR(L747-S752del, P753S) (Homo sapiens, UniProt P00533, DEL747-752/P753S)", "test": "biochemical", "settings": "compound concentration 100 nM; Entrez EGFR; read-out: Percent Control"}, "[5]": {"target": "ABL1(F317L)-phosphorylated (Homo sapiens, UniProt P00519, F317L)", "test": "biochemical", "settings": "read-out: Percent Control"}, "BRPF1B": {"target": "BRPF1B (Homo sapiens, UniProt P55201)", "test": "DSF selectivity screening", "settings": "10 μM compound"}, "WNK2": {"target": "WNK2 (Homo sapiens, UniProt Q9Y3S1)", "sequence (Q9Y3S1 whole entry)": "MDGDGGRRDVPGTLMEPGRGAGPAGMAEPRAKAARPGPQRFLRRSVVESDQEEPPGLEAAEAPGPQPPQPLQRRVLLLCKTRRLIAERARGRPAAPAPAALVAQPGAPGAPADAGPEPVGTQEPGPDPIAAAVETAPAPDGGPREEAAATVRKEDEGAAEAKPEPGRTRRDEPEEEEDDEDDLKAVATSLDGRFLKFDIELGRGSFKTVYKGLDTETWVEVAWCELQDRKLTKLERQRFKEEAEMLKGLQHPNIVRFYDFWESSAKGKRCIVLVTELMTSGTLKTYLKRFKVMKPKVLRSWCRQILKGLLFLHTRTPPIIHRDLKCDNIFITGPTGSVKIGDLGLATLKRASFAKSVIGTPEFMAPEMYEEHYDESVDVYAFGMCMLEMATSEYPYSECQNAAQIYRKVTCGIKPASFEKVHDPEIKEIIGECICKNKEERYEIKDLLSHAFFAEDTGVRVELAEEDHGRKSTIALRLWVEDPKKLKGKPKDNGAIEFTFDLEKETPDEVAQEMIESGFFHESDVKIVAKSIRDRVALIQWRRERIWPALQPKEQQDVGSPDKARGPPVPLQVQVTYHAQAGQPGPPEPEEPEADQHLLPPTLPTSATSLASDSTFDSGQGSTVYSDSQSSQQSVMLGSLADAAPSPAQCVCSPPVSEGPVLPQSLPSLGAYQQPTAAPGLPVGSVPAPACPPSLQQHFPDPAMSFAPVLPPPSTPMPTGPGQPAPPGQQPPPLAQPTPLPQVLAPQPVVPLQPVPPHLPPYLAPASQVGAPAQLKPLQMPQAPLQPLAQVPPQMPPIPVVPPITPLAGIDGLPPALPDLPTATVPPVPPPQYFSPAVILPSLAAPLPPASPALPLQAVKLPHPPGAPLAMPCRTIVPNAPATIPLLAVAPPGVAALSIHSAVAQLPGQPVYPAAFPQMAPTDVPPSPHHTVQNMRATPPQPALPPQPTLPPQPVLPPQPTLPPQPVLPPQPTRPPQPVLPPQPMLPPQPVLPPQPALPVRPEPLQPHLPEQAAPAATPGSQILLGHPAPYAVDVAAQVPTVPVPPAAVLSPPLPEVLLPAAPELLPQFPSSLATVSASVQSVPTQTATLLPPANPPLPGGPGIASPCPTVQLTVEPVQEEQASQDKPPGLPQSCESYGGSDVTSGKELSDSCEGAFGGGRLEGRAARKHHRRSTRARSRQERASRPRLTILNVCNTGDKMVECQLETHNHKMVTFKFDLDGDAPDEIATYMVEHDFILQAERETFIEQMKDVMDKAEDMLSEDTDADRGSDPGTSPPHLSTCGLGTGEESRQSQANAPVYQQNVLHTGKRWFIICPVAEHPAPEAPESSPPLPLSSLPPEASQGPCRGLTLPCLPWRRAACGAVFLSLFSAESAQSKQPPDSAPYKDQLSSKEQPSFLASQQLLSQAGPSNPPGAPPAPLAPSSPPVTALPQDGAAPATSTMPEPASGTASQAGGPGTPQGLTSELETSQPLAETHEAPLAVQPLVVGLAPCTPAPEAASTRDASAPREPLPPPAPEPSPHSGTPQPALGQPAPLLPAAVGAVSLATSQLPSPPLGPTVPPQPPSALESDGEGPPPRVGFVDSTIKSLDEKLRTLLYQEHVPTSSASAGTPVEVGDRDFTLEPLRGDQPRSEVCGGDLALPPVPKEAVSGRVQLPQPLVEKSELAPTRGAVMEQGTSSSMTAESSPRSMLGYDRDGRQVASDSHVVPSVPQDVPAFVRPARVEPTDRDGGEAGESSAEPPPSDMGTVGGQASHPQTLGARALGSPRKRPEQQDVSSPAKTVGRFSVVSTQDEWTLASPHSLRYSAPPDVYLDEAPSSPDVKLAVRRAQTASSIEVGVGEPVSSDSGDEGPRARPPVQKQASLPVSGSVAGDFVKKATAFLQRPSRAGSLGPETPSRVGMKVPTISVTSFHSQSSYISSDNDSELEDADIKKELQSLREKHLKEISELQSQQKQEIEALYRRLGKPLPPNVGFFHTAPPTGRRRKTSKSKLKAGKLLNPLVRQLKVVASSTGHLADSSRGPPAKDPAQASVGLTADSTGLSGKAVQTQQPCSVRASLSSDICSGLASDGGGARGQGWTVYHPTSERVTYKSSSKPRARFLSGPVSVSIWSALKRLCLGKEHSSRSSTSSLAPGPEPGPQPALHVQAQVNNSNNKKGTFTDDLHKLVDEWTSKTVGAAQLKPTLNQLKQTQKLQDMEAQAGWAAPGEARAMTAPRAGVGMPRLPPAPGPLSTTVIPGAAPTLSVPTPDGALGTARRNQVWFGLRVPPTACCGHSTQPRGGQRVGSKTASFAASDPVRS", "test": "scanMAX KINOMEscan (Eurofins)"}},
  "note": "Like-named read-outs stand apart in the source and are kept apart here.",
  "data": [
    {"smiles": "CN1C(=O)[C@@H](N2CCc3c(nn(Cc4ccccc4)c3C(N)=O)C2=O)COc2cc(Cl)ccc21", "note": "[Compound 10, (S)-2-benzyl-6-(8-chloro-5-methyl-4-oxo-2,3,4,5-tetrahydrobenzo[b][1,4]oxazepin-3-yl)-7-oxo-4,5,6,7-tetrahydro-2H-pyrazolo[3,4-c]pyridine-3-carboxamide]", "values": [
      {"measurement": "remaining activity at 1 µM", "setting": "EGFR(G719S)", "result": 92, "unit": "%"},
      {"measurement": "Percent Control", "setting": "EGFR(L747-T751del,Sins)", "result": 97, "unit": "%"},
      {"measurement": "Percent Control", "setting": "FLT3(ITD,F691L)", "result": 100},
      {"measurement": "remaining activity at 1 µM", "setting": "[1]", "result": 79, "unit": "%"},
      {"measurement": "ΔTm at 10 µM", "setting": "MAPK15A", "result": 0, "unit": "°C"},
      {"measurement": "ΔTm at 10 µM", "setting": "STK3A", "result": 0.2, "unit": "°C"},
      {"measurement": "ΔTm at 10 µM", "setting": "CAMK1DA", "result": -0.2, "unit": "°C"},
      {"measurement": "ΔTm at 10 µM", "setting": "ULK3A", "result": 0.2, "unit": "°C"},
      {"measurement": "ΔTm at 10 µM", "setting": "STK17BA", "result": 0.1, "unit": "°C"},
      {"measurement": "ΔTm at 10 µM", "setting": "VRK1A", "result": -0.2, "unit": "°C"},
      {"measurement": "ΔTm at 10 µM", "setting": "MAPK13A", "result": -0.1, "unit": "°C"},
      {"measurement": "ΔTm at 10 µM", "setting": "MAPKAPK2A", "result": 0, "unit": "°C"},
      {"measurement": "ΔTm at 10 µM", "setting": "AAK1A", "result": 0.1, "unit": "°C"},
      {"measurement": "ΔTm at 10 µM", "setting": "MST4A", "result": -0.1, "unit": "°C"},
      {"measurement": "ΔTm at 10 µM", "setting": "PAK4A", "result": 0.1, "unit": "°C"},
      {"measurement": "ΔTm at 10 µM", "setting": "SLKA", "result": -0.3, "unit": "°C"},
      {"measurement": "ΔTm at 10 µM", "setting": "MAP2K6A", "result": 0.1, "unit": "°C"},
      {"measurement": "ΔTm at 10 µM", "setting": "DYRK2A", "result": 0.1, "unit": "°C"},
      {"measurement": "ΔTm at 10 µM", "setting": "BMP2KA", "result": 0.3, "unit": "°C"},
      {"measurement": "ΔTm at 10 µM", "setting": "FLT1A", "result": 0.2, "unit": "°C"},
      {"measurement": "ΔTm at 10 µM", "setting": "PHKG2A", "result": 0, "unit": "°C"},
      {"measurement": "ΔTm at 10 µM", "setting": "CAMK2BA", "result": 0.1, "unit": "°C"},
      {"measurement": "ΔTm at 10 µM", "setting": "EPHA5A", "result": 0, "unit": "°C"},
      {"measurement": "ΔTm at 10 µM", "setting": "DAPK1A", "result": 0.1, "unit": "°C"},
      {"measurement": "ΔTm at 10 µM", "setting": "PLK4A", "result": 0.2, "unit": "°C"},
      {"measurement": "ΔTm at 10 µM", "setting": "TTKA", "result": -0.3, "unit": "°C"},
      {"measurement": "ΔTM", "setting": "TAF1A", "result": 0.3, "unit": "K"},
      {"measurement": "ΔTm at 10 µM", "setting": "GSK3BB", "result": 0.1, "unit": "°C"},
      {"measurement": "ΔTm at 10 µM", "setting": "EPHA4A", "result": 0.2, "unit": "°C"},
      {"measurement": "remaining activity at 1 µM", "setting": "[2]", "result": 88, "unit": "%"},
      {"measurement": "remaining activity at 1 µM", "setting": "FLT3(R834Q)", "result": 92, "unit": "%"},
      {"measurement": "remaining activity at 1 µM", "setting": "[3]", "result": 100, "unit": "%"},
      {"measurement": "remaining activity at 0.1 µM", "setting": "[4]", "result": 97, "unit": "%"},
      {"measurement": "remaining activity at 1 µM", "setting": "[5]", "result": 100, "unit": "%"},
      {"measurement": "ΔTm at 10 µM", "setting": "BRPF1B", "result": -0.1, "unit": "°C"},
      {"measurement": "remaining binding at 0.1 µM", "setting": "WNK2; WNK2 (Entrez WNK2), 100 nM, read-out: Percent Control", "result": 100, "unit": "%"},
      {"measurement": "remaining binding at 1 µM", "setting": "WNK2; WNK2, 1 μM, read-out: POC (Top Hits @ 1 μM)", "result": 49, "unit": "%"},
      {"measurement": "remaining binding at 1 µM", "setting": "WNK2; WNK2, 1000 nM, read-out: Percent Control", "result": 49, "unit": "%"}
    ]}
  ]
}
